The values below come from patent US20130053435A1, “Methods of Treating Alcohol Intoxication, Alcohol Use Disorders and Alcohol Abuse Which Comprises the Administration of Dihydromyricetin” (priority 2011, published 2013).

Assay [1] relates to EtOH-induced LORR in rats. The procedure: See Kakihana R, et al. (1966) Science 154(756):1574-1575). Briefly, after drug injection, rats were placed in the supine position in a V-shaped support. LORR onset time was taken from the endpoint of drug injection (i.p.). LORR duration ended when the animal was able to flip over three times in 30 s. LORR assays were blindly performed. LORR durations were reported as mean (min)±SEM.
Further LORR assays were conducted as follows.
Additional pre-treatment and post-treatment experiments were also conducted.
See Hunkeler, W., et al. (1981) Nature 290:514-516.

In assay [2] the test system is EtOH withdrawal-induced tolerance in rats. In words: EtOH withdrawal-induced tolerance measured by acute EtOH-induced LORR. Type of assay: in vivo, rat. The conditions noted are these: for LORR duration after 48 hr withdrawal: test EtOH 3 g/kg i.p.; for acute EtOH-induced LORR after 48 hr withdrawal: FIG. 12B. The procedure: See Kakihana R, et al. (1966) Science 154(756):1574-1575). […] LORR duration ended when the animal was able to flip over three times in 30 s. LORR assays were blindly performed. LORR durations were reported as mean (min)±SEM.
After a 48 hr withdrawal period, EtOH-induced LORR assays (EtOH, 3 g/kg, i.p.) were performed.
48 hr after injection, rats were sub-divided into 3 groups to measure signs of EtOH withdrawal.
Tolerance to EtOH was measured with acute EtOH-induced LORR (in minutes, FIG. 12B). EtOH induced 63.6±7.0 LORR in the vehicle group subjects as compared to 10.8±3.8 LORR in EtOH group subjects.

In another assay the test system is GABAARs. The assay is described as follows: Whole-cell patch-clamp, DGCs in hippocampal slices 48 hr after in vivo treatment. Type of assay: cell-based, rat. Particulars: 48 hr withdrawal. How it is done: Transverse slices (400 μm) of dorsal hippocampus were obtained with a Vibratome (VT 100, Technical Products International, St. Louis, Mo.) and standard techniques known in the art. Slices were continuously perfused with artificial cerebrospinal fluid (ACSF). See Liang, J., et al. (2007) J Neurosci 27:12367-12377.
Whole-cell patch-clamp recordings were obtained at 34±0.5° C. from cells located in the DG layer at a holding potential of −70 mV, during perfusion with artificial cerebrospinal fluid (ACSF, 125 mM NaCl, 2.5 mM KCl, 2 mM CaCl2, 2 mM MgCl2, 26 mM NaHCO3, and 10 mM D-glucose). The ACSF was continuously bubbled with 95% O2-5% CO2 to ensure adequate oxygenation of slices and a pH of 7.4. Patch electrodes were pulled from thin-wall borosilicate glass pipettes with resistances of 7.5-9 MΩ and were filled with pipette solution (i.e. 137 mM CsCl, 2 mM MgCl2, 1 mM CaCl2, 11 mM EGTA, 10 mM HEPES and 3 mM ATP, pH adjusted to 7.30 with CsOH). Signals were recorded in voltage-clamp mode with a […] amplifier (Molecular Devices, Sunnyvale, Calif.). Whole cell access resistances were in the range of <25 MΩ before electrical compensation by about 70%. During voltage-clamp recordings, access resistance was monitored by measuring the size of the capacitative transient in response to a 5 mV step command and the data were abandoned if changes >20% were encountered. At least 10 min was allowed for equilibration of the pipette solution with the intracellular milieu before commencing mIPSC recordings. Intracellular signal was low-pass filtered at 3 kHz and data were acquired with Digidata 1440A and software CLAMPEX 10 (Molecular Devices) at a sampling frequency of 20 kHz.
Pharmacologically-isolated GABAAR-mediated mIPSCs were recorded as previously described (Liang (2007) and Shen (2011)). […] Data were analyzed using the Clampfit (Version 9.0, Molecular Devices) and the MiniAnalysis Program (versions 6.0.7, Synaptosoft, Decatur, Ga.).
The MiniAnalysis program (Synaptosoft, Decatur, Ga.) was used to analyze mIPSCs. Itonic is the averaged baseline currents of a given recording period. Itonic amplitude was calculated as the difference between the holding currents measured before and after picrotoxin (100 μM) or bicuculline (10 μM). See Wei, W., et al. (2004) J Neurosci 24, 8379-8382; Liang (2007); and Shen (2011). Briefly, the recordings were low-pass filtered off-line (Clampfit software) at 2 kHz. The mIPSCs were detected (Mini Analysis Program, version 6.0.7) with threshold criteria of 8 pA amplitude and 20 pA*ms charge transfer. The frequency of mIPSCs was determined from all automatically detected events in a given 100 s recording period. For kinetic analysis, only single event mIPSCs with a stable baseline, sharp rising phase (10 to 90% rise time), and exponential decay were chosen during visual inspection of the recording trace. Double and multiple peak mIPSCs were excluded. At least 100 individual mIPSC events were recorded under each experimental condition. The mIPSC kinetics was obtained from analysis of the averaged chosen single events aligned with half rise time in each cell. Decay time constants were obtained by fitting a double exponential to the falling phase of the averaged mIPSCs. Itonic magnitudes were obtained from the averaged baseline current of a given recording period. Itonic amplitude was calculated as the difference between the holding currents measured before and after the application of picrotoxin (50 μM) or bicuculline (10 μM). See Liang J et al (2007); Shen (2011); Hamann (2002); and Mangan P S, et al. (2005) Mol Pharmacol 67(3):775-788. The investigator performing the recordings and mIPSC analysis was blind to the treatment (vehicle, EtOH, E+D, or D) that the rats received.
After 48 hr withdrawal, whole-cell GABAAR-mediated currents were recorded on DGCs in hippocampal slices. In the vehicle group, bath application of EtOH (60 mM) enhanced Itonic from 28.8±3.1 to 62.1±3.3 pA (FIG. 13, panels A, G). […]

A further assay in a line: Plasma [EtOH] assay. Type of assay: in vivo, rat. Particulars: two-bottle choice, E+D/water group, end of the fourth week. The procedure: See Liang (2007). The rat was put into a restraint tube and its tail was warm in about 40° C. The tail vein at the tip of the rail was punched with a sharp blade. Approximately 0.2 ml venous blood was dropped to a capillary blood collection tube containing lithium heparin (Ram Scientific Inc. Yonkers, N.Y.). Blood samples were centrifuged at 2500 rpm for 15 min. The supernatant was collected and stored at −80° C. until assay. The EtOH content of each blood sample was measured in duplicate along with EtOH standards using the alcohol oxidase reaction procedures (GM7 Micro-Stat; Analox Instruments, Lunenberg, Mass.).

The mark [3] stands for this setting: DHM 1 mg/kg i.p. 30 min after EtOH i.p.
Setting [4] is: DHM 1 mg/kg i.p. 30 min prior to EtOH 3 g/kg i.p.

Several values for one entry are separate records, joined by “and”; a condition that tells them apart may be missing. Equal entries are not always repeated. Where two headings read alike, the source gives them in different places.

Turning to `O=C1c2c(O)cc(O)cc2O[C@H](c2cc(O)c(O)c(O)c2)[C@H]1O` [DHM, (2R,3R)-3,5,7-trihydroxy-2-(3,4,5-trihydroxyphenyl)-2,3-dihydrochromen-4-one], the “LORR duration remaining from DHM injection” value in assay [1] (setting [3]) is 21 ± 2 min and 19 ± 1.0 min. Besides, the “remaining LORR, % of control (E+saline)” value in assay [1] (setting [3]) was 41.2±3.8% and 42%. The “LORR duration (total)” value in assay [1] (DHM 1 mg/kg i.p. 30 min after EtOH i.p. (b63 prints 3 mg/kg)) was determined as 49 ± 2 min. For the same compound, the LORR duration is 8 ± 4 min and 8.2 ± 4.1 min in assay [1] (setting [4]); 2.7 ± 1.7 min in assay [1] (co-injection DHM 3 mg/kg and EtOH 3 g/kg i.p.). For the same compound, the “LORR duration, % of control” value in assay [1] (setting [4]) is recorded as 10.6±5.9 % of control; in assay [1] (co-administration DHM 1 mg/kg i.p. with EtOH i.p.) it was 1.2±0.6 % of control. Moreover, the “EtOH-induced LORR duration in female rats” value in assay [1] (female rats, combined treatment DHM 1 mg/kg i.p. with EtOH 3 g/kg i.p.) was “reduction”. In addition, the “LORR duration after 48 hr withdrawal” value in assay [2] (DHM 1 mg/kg i.p. alone) and in assay [2] (i.p. EtOH 3 g/kg + DHM 1 mg/kg 30 min after EtOH) was 61 ± 4 min each time. In addition, the “acute EtOH-induced LORR after 48 hr withdrawal” value in assay [2] (DHM group) is 65.6 ± 8.4 min; in assay [2] (EtOH+DHM (1 mg/kg) group), 61.0 ± 3.8 min. Also, the “mIPSC area after acute EtOH (60 mM)” value with GABAARs (EtOH+DHM group) came to 0.78±0.02 nC. Moreover, in the assay with GABAARs (EtOH+DHM group), the “mIPSC area before acute EtOH” value is given as 0.70±0.03 nC. Moreover, the “Itonic before acute EtOH” value with GABAARs (rats treated with EtOH (5 g/kg) + DHM (1 mg/kg)) was 30.0±2.8 pA and 27.9±3.0 pA. For the same compound, the “Itonic after acute EtOH (60 mM)” value in the assay with GABAARs (rats treated with EtOH + DHM (1 mg/kg)) is 60.0±2.2 pA and 61.3±2.3 pA. Further, the “mIPSC increase by acute EtOH (60 mM)” value in the assay on GABAARs (rats treated with EtOH + DHM) is reported as 18.0±5.9%. Also, the “plasma [EtOH] vs. E/water group” value in the assay “Plasma [EtOH] assay” was “significantly lower”.
